# In the supplement of paper PMC10307832:
# Experiments:
# Assay in all cases: relative viability (nuclei count vs DMSO), 5 days (fraction); higher = more cells survive
# Motesanib + Dasatinib = compound: CC1(C)CNc2cc(NC(=O)c3cccnc3NCc3ccncc3)ccc21 [Motesanib] + Cc1nc(Nc2ncc(C(=O)Nc3c(C)cccc3Cl)s2)cc(N2CCN(CCO)CC2)n1 [Dasatinib] (partner 0.075 µM)
# Summary of the method: (§1)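 Dosing by pin tool came one day after lung cancer cell lines were seeded in 1536-well plates, using either one drug or a fixed anchor-drug dose plus five library-drug doses (not always all listed) in √10 steps. After 5 days, nuclei were counted on 4× images. Relative viability is treated-well nuclei count divided by vehicle-well nuclei count, and values are medians of duplicate plates.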
# [1] = compound: C[C@@]1(C(=O)Nc2ccc(F)nc2)CCCN1c1nc(Nc2cc(C3CC3)n[nH]2)c2cccn2n1 + CCNC(=O)c1noc(-c2cc(C(C)C)c(O)cc2O)c1-c1ccc(CN2CCOCC2)cc1 [Luminespib] (partner 0.01 µM)
# Summary of the method: as §1
# [2] = compound: C[C@@]1(C(=O)Nc2ccc(F)nc2)CCCN1c1nc(Nc2cc(C3CC3)n[nH]2)c2cccn2n1 + Cc1nc(NC(=O)N2CCC[C@H]2C(N)=O)sc1-c1ccnc(C(C)(C)C(F)(F)F)c1 [Alpelisib] (partner 2 µM)
# Summary of the method: as §1
# [3] = compound: C[C@@]1(C(=O)Nc2ccc(F)nc2)CCCN1c1nc(Nc2cc(C3CC3)n[nH]2)c2cccn2n1 + Nc1ncn([C@H]2C[C@H](O)[C@@H](CO)O2)c(=O)n1 [Decitabine] (partner 2 µM)
# Summary of the method: as §1
cell line,measurement,setting,value
UMC-11,relative viability,Motesanib + Dasatinib; first compound 0.01 µM,0.435
same,relative viability,Motesanib + Dasatinib; first compound 0.03162 µM,0.447
same,relative viability,Motesanib + Dasatinib; first compound 0.1 µM,0.489
same,relative viability,Motesanib + Dasatinib; first compound 0.3162 µM,0.477
same,relative viability,Motesanib + Dasatinib; first compound 1 µM,0.471
same,relative viability,[1]; first compound 0.04 µM,0.94
same,relative viability,[1]; first compound 0.1265 µM,1.01
same,relative viability,[1]; first compound 0.4 µM,0.968
same,relative viability,[1]; first compound 1.265 µM,0.726
same,relative viability,[2]; first compound 0.04 µM,0.955
same,relative viability,[2]; first compound 0.1265 µM,1.1
same,relative viability,[2]; first compound 0.4 µM,1.01
same,relative viability,[2]; first compound 1.265 µM,1.1
same,relative viability,[3]; first compound 0.04 µM,0.638
same,relative viability,[3]; first compound 0.1265 µM,0.45
same,relative viability,[3]; first compound 0.4 µM,0.317
same,relative viability,[3]; first compound 1.265 µM,0.646
